As a reminder, the IC50 is the midpoint of a concentration-inhibition curve.

Among the data in patent US20050009840A1 (SUGEN, INC., priority 2003, published 2005) are IC50 values, retold here.

The target in the test is T1, Met kinase domain (GST fusion protein) (Homo sapiens, UniProt P08581).
T1 construct: Purified GST fusion protein containing the Met kinase domain
Put plainly: Met transphosphorylation assay (ELISA, poly(glu-tyr) substrate).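 Note: Cell-free ELISA with plate-bound poly(Glu:Tyr 4:1) phosphorylated by GST-fused Met kinase domain plus ATP and Mn2+, phosphotyrosine detected by anti-phosphotyrosine antibody with HRP and ABTS read-out.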 Type of test: biochemical. The following applies: read-out: Met IC50.

Where [1] appears, read: plain numbers in column Met IC50 (μM) of Table 2.

Several values for one entry are separate records, joined by “and”; a condition that tells them apart may be missing. Identical values can stand only once. Like-named read-outs stand apart in the source and are kept apart here. Some results are limits rather than exact numbers.

T1 sequence (P08581 1078-1345 limits assumed): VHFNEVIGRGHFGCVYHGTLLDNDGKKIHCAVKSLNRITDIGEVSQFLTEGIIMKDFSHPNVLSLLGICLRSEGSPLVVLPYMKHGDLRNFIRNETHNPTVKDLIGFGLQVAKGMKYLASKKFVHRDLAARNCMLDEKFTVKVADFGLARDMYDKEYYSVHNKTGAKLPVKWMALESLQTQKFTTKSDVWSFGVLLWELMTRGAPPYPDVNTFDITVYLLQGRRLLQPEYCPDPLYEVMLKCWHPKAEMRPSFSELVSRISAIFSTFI
Procedure: General procedure is as follows: a compound is introduced to cells expressing the test kinase, either naturally or recombinantly, for a selected period of time after which, if the test kinase is a receptor, a ligand known to activate the receptor is added. The cells are lysed and the lysate is transferred to the wells of an ELISA plate previously coated with a specific antibody recognizing the substrate of the enzymatic phosphorylation reaction. Non-substrate components of the cell lysate are washed away and the amount of phosphorylation on the substrate is detected with an antibody specifically recognizing phosphotyrosine compared with control cells that were not contacted with a test compound.
Met Transphosphorylation Assay
This assay is used to measure phosphotyrosine levels on a poly(glutamic acid:tyrosine, 4:1) substrate as a means for identifying agonists/antagonists of met transphosphorylation of the substrate.
PBS, Gibco Catalog # 450-1300EB • 4. 50 mM HEPES • 5. […] Purified GST fusion protein containing the Met kinase domain, SUGEN, Inc. • 7. TBST Buffer. • 8. 10% aqueous (MilliQue H2O) DMSO. • 9. […] 2× Kinase Dilution Buffer: for 100 mL, mix 10 mL 1M HEPESat pH 7.5 with 0.4 mL 5% BSA/PBS, 0.2 mL 0.1 M sodium orthovanadate and 1 mL 5M sodium chloride in 88.4 mL dH2O. • 11. 4× ATP Reaction Mixture: for 10 mL, mix 0.4 mL 1 M manganese chloride and 0.02 mL 0.1 M ATP in 9.56 mL dH2O. • 12. 4× Negative Controls Mixture: for 10 mL, mix 0.4 mL 1 M manganese chloride in 9.6 mL dH2O. • 13. […] 500 mM EDTA. • 15. Antibody Dilution Buffer: for 100 mL, mix 10 mL 5% BSA/PBS, 0.5 mL 5% Carnation® Instant Milk in PBS and 0.1 mL 0.1 M sodium orthovanadate in 88.4 mL TBST. • 16. Rabbit polyclonal antophosphotyrosine antibody, SUGEN, Inc. • 17. Goat anti-rabbit horseradish peroxidase conjugated antibody, Biosource, Inc. • 18. ABTS Solution: for 1 L, mix 19.21 g citric acid, 35.49 g Na2HPO4 and 500 mg ABTS with sufficient dH2O to make 1 L. • 19. ABTS/H2O2: mix 15 mL ABST solution with 2μL H2O2 five minutes before use. • 20. 0.2 M HCl Procedure: • 1. Coat ELISA plates with 2 μg Poly(Glu-Tyr) in 100 μL PBS, hold-overnight at 4° C. • 2. Block plate with 150 μL of 5% BSA/PBS for 60 min. • 3. Wash plate twice with PBS then once with 50 mM Hepes buffer pH 7.4. • 4. Add 50 μl of the diluted kinase to all wells. (Purified kinase is diluted with Kinase Dilution Buffer. Final concentration should be 10 ng/well.) • 5. Add 25 μL of the test compound (in 4% DMSO) or DMSO alone (4% in dH2O) for controls to plate. • 6. Incubate the kinase/compound mixture for 15 minutes. • 7. Add 25 μL of 40 mM MnCl2 to the negative control wells. • 8. Add 25 μL ATP/MnCl2 mixture to the all other wells (except the negative controls). Incubate for 5 min. • 9. Add 25 μL 500 mM EDTA to stop reaction. • 10. Wash plate 3× with TBST. • 11. Add 100 μL rabbit polyclonal anti-Ptyr diluted 1:10,000 in Antibody Dilution Buffer to each well. Incubate, with shaking, at room temperature for one hour. • 12. Wash plate 3× with TBST. • 13. […] Add 100 μL per well and incubate at room temperature, with shaking, for one hour. • 14. Wash plate 1× with PBS. • 15. Add 100 μl of ABTS/H2O2 solution to each well. • 16. If necessary, stop the development reaction with the addition of 100 μl of 0.2M HCl per well. • 17.

`Nc1ncc(-c2ccc3[nH]cc(CN4CCCCC4)c3c2)nc1OCc1c(F)ccc(F)c1Cl` [II-67, 3-(2-Chloro-3,6-difluoro-benzyloxy)-5-(3-piperidin-1-ylmethyl-1H-indol-5-yl)-pyrazin-2-ylamine]: the half-maximal inhibitory concentration (IC50) was found to be 0.51 µM.

Take `CC(Oc1cc(-c2ccc(NC(=O)NCCN3CCCC3)cc2)cnc1N)c1c(F)ccc(F)c1Cl` (stereo not shown) [Example I-383, 1-(4-{6-Amino-5-[1-(2-chloro-3,6-difluoro-phenyl)-ethoxy]-pyridin-3-yl}-phenyl)-3-(2-pyrrolidin-1-yl-ethyl)-urea]: the IC50 under setting [1] turned out to be 0.11 µM.

Consider `CC(=O)N1CCN(CCNC(=O)c2ccc(-c3cnc(N)c(OCc4c(F)ccc(F)c4Cl)n3)cc2)CC1` [II-37, N-[2-(4-Acetyl-piperazin-1-yl)-ethyl]-4-[5-amino-6-(2-chloro-3,6-difluoro-benzyloxy)-pyrazin-2-yl]-benzamide], for which the IC50 amounted to 1.35 µM.

Regarding `CC(Oc1cc(-c2ccc(NC(=O)NCCO)cc2)cnc1N)c1c(F)ccc(F)c1Cl` (stereo not shown) [Example I-381, 1-(4-{6-Amino-5-[1-(2-chloro-3,6-difluoro-phenyl)-ethoxy]-pyridin-3-yl}-phenyl)-3-(2-hydroxy-ethyl)-urea], the IC50 under setting [1] was 0.11 µM.

Turning to `CC(Oc1nc(-c2cccc(C(=O)N3C[C@@H](C)N[C@@H](C)C3)c2)cnc1N)c1c(Cl)ccc(F)c1Cl` (stereo partly drawn) [II-131, (3-{5-Amino-6-[1-(2,6-dichloro-3-fluoro-phenyl)-ethoxy]-pyrazin-2-yl}-phenyl)-((3R,5S)-3,5-dimethyl-piperazin-1-yl)-methanone], the IC50 worked out at 0.12 µM.

Take `CC(Oc1cc(-c2ccc(N3CCCS3(=O)=O)cc2)cnc1N)c1c(F)ccc(F)c1Cl` (stereo not shown) [Example I-365, 3-[1-(2-Chloro-3,6-difluoro-phenyl)-ethoxy]-5-[4-(1,1-dioxo-1lambda*6*- isothiazolidin-2-yl)-phenyl]-pyridin-2-ylamine]: the IC50 under setting [1] came to 0.14 µM.

For the compound `CC(Oc1cc(-c2ccc(C(=O)N3CC[C@H](O)C3)cc2)cnc1N)c1c(Cl)ccc(F)c1Cl` (stereo partly drawn) [Example I-306, (4-{6-Amino-5-[1-(2,6-dichloro-3-fluoro-phenyl)-ethoxy]-pyridin-3-yl}-phenyl)-((S)-3-hydroxy-pyrrolidin-1-yl)-methanone], the IC50 (Table 2) was 0.024 µM.

For `Nc1ncc(-c2ccccc2O)cc1OCc1c(Cl)cccc1Cl` [Example I-19, 2-[6-Amino-5-(2,6-dichloro-benzyloxy)-pyridin-3-yl]-phenol], the IC50 amounted to 2.16 µM.

`CC(Oc1cc(-c2ccc(C(=O)NCCCN3CCCC3)cc2)cnc1N)c1c(Cl)cccc1Cl` (stereo not shown) [Example I-406, 4-{6-Amino-5-[1-(2,6-dichloro-phenyl)-ethoxy]-pyridin-3-yl}-N-(3-pyrrolidin-1-yl-propyl)-benzamide]: under setting [1], the concentration for half-maximal inhibition (IC50) worked out at 0.061 µM.

Turning to `Nc1ncc(-c2ccc(O)cc2)cc1OCc1ccc(Cl)cc1Cl` [Example I-130, 4-[6-Amino-5-(2,4-dichloro-benzyloxy)-pyridin-3-yl]-phenol], the IC50 is 9 µM and > 20 µM.

Consider `Nc1ncc(-c2ccc(C(=O)N3CCC[C@@H]3CN3CCCC3)cc2)nc1OCc1c(Cl)cccc1Cl` [II-7, {4-[5-Amino-6-(2,6-dichloro-benzyloxy)-pyrazin-2-yl]-phenyl)[(2R)-2-pyrrolidin-1-ylmethyl-pyrrolidin-1-yl]-methanone], for which the IC50 came out at 0.24 µM.

`COc1ccc(COc2cc(-c3ccccc3)cnc2N)cc1F` [Example I-104, 3-(3-Fluoro-4-methoxy-benzyloxy)-5-phenyl-pyridin-2-ylamine]: the IC50 stood at 15 µM.

With `CN(C)[C@H]1CCN(C(=O)c2ccc(-c3cnc(N)c(OCc4ccc(Cl)cc4Cl)c3)cc2)C1` [Example I-174, {4-[6-Amino-5-(2,4-dichloro-benzyloxy)-pyridin-3-yl]-phenyl}-[(3S)-3-dimethylamino-pyrrolidin-1-yl]-methanone], the IC50 was 0.8 µM.

With `CC(Oc1nc(-c2ccc(NC(=O)NCCO)cc2)cnc1N)c1c(F)ccc(F)c1Cl` (stereo not shown) [II-186, 1-(4-{5-Amino-6-[1-(2-chloro-3,6-difluoro-phenyl)-ethoxy]-pyrazin-2-yl}-phenyl)-3-(2-hydroxy-ethyl)-urea], the IC50 was 0.21 µM.

For `Nc1ncc(-c2ccc(C(=O)O)cc2)nc1OCc1c(Cl)cccc1Cl` [II-6, 4-[5-amino-6-(2,6-dichloro-benzyloxy)-pyrazin-2-yl]-benzoic acid], the IC50 worked out at 1.75 µM.

Consider `CC(Oc1cc(OCC2CCCCC2)cnc1N)c1c(F)ccc(F)c1Cl` (stereo not shown) [Example I-534, 3-[1-(2-Chloro-3,6-difluoro-phenyl)-ethoxy]-5-cyclohexylmethoxy-pyridin-2-ylamine], for which the IC50 under setting [1] was determined as 5.97 µM.

With `Nc1ncc(Br)cc1OCc1ccccc1Br` [I(d), 5-Bromo-3-(2-bromo-benzyloxy)-pyridin-2-ylamine], the IC50 was > 20 µM.

Take `CC(Oc1nc(-c2ccc(C(=O)NCCN3CCCC3)cc2)cnc1N)c1c(F)ccc(F)c1Cl` (stereo not shown) [II-117, 4-{5-Amino-6-[1-(2-chloro-3,6-difluoro-phenyl)-ethoxy]-pyrazin-2-yl}-N-(2-pyrrolidin-1-yl-ethyl)-benzamide]: the IC50 stood at 0.11 µM.

As for `Nc1ncc(-c2ccc(C(=O)N3CCC[C@H]3CN3CCCC3)cc2)cc1OCc1c(F)cccc1F` [Example I-123, {4-[6-Amino-5-(2,6-difluoro-benzyloxy)-pyridin-3-yl]-phenyl}-[(2S)-2-pyrrolidin-1-ylmethyl-pyrrolidin-1-yl]-methanone], the IC50 worked out at 1.36 µM.

As for `CC(Oc1nc(-c2cccc(C(=O)NCCCN3CCCC3)c2)cnc1N)c1c(Cl)ccc(F)c1Cl` (stereo not shown) [II-91, 3-{5-Amino-6-[1-(2,6-dichloro-3-fluoro-phenyl)-ethoxy]-pyrazin-2-yl}-N-(3-pyrrolidin-1-yl-propyl)-benzamide], the IC50 worked out at 0.15 µM.

As for `CC(Oc1nc(-c2ccc(NC(=O)NCCN3CCCC3)cc2)cnc1N)c1c(F)ccc(F)c1Cl` (stereo not shown) [II-184, 1-(4-{5-Amino-6-[1-(2-chloro-3,6-difluoro-phenyl)-ethoxy]-pyrazin-2-yl}-phenyl)-3-(2-pyrrolidin-1-yl-ethyl)-urea], the IC50 was found to be 0.18 µM.

As for `CC(Oc1cc(-c2ccc(NC(=O)NCCO)cc2)cnc1N)c1c(Cl)ccc(F)c1Cl` (stereo not shown) [Example I-373, 1-(4-{6-Amino-5-[1-(2,6-dichloro-3-fluoro-phenyl)-ethoxy]-pyridin-3-yl}-phenyl)-3-(2-hydroxy-ethyl)-urea], the IC50 under setting [1] was 0.064 µM.

With `CC(Oc1nc(-c2cccc(C(=O)NCCN3CCOCC3)c2)cnc1N)c1c(Cl)cccc1Cl` (stereo not shown) [II-172, 3-{5-Amino-6-[1-(2,6-dichloro-phenyl)-ethoxy]-pyrazin-2-yl}-N-(2-morpholin-4-yl-ethyl)-benzamide], the IC50 stood at 0.48 µM.

As for `CN(C)[C@H]1CCN(C(=O)c2ccc(-c3cnc(N)c(OCc4c(Cl)cccc4Cl)c3)cc2)C1` [Example I-43, {4-[6-Amino-5-(2,6-dichloro-benzyloxy)-pyridin-3-yl]-phenyl}-[(3S)-3-dimethylamino-pyrrolidin-1-yl]-methanone], the IC50 was found to be 0.47 µM.

On to `Nc1ncc(-c2ccc(NS(=O)(=O)CCNCC3CC3)cc2)cc1OCc1c(F)ccc(F)c1Cl` [Example I-251, 2-(Cyclopropylmethyl-amino)-ethanesulfonic acid {4-[6-amino-5-(2-chloro-3,6-difluoro-benzyloxy)-pyridin-3-yl]-phenyl}-amide], for which the IC50 (Table 2) was 0.075 µM.
